Twelve compounds from patent US20250170248A1, “SMARCA DEGRADERS AND USES THEREOF” (Kymera Therapeutics, Inc., priority 2021, published 2025) can be followed below.

Type in all cases: cell-based
Experiment [1] addresses T1, SMARCA2 (Homo sapiens, UniProt P51531). Put plainly: SMARCA2 Western blot degradation in MV4-11 cells. Further details: SMARCA2/SMARCA4 protein degradation selectivity in MV4-11 cells; endogenous in cells; host or cells: MV4-11. Particulars: for Dmax: MV4-11, MV4-11 cells, read-out: SMARCA2 MSD MV411 degradation 24 h: average Dmax %; for Dmax / DC50 / SMARCA2 MSD MV411 degradation 24 h: average Dmax %: 24 h; for DC50 / Selectivity in MV411 / SMARCA2 MSD MV411 degradation 24 h: average Dmax %: MV4-11 cells; for DC50: read-out: SMARCA2 MSD MV411 degradation 24 h: Mean external-Abs DC50; for Selectivity in MV411: SMARCA2/4 selectivity.

A further experiment deals with T2, SMARCA4 (Homo sapiens, UniProt P51532).
T2 construct: SMARCA2/SMARCA4 protein degradation selectivity in MV4-11 cells; endogenous in cells; host or cells: MV4-11
Put plainly: SMARCA4 Western blot degradation in MV4-11 cells. Particulars: for Dmax: MV4-11, MV4-11 cells, read-out: SMARCA4 MSD MV411 degradation 24 h: average Dmax %; for Dmax / DC50: 24 h; for DC50 / SMARCA4 MSD MV411 degradation 24 h: average Dmax %: MV4-11 cells; for DC50: read-out: SMARCA4 MSD MV411 degradation 24 h: Mean external-Abs DC50. The gist of the method:
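Protein levels quantified by LI-COR Western blot (beta-actin loading control) in RIPA lysates of MV4-11 cells after 24 h compound exposure. Degradation reported as DC50, Dmax % at 24 h and SMARCA2 vs SMARCA4 selectivity, each binned into letter codes.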

In experiment [2] the target is T1, SMARCA2. Put plainly: MSD SMARCA2 degradation in A549 cell line. Particulars: for Dmax: A549, A549 cells; for Dmax / DC50: 24 h; for DC50 / SMARCA2 MSD A549 degradation 24 h: Average Dmax %: A549 cells; for DC50: read-out: SMARCA2 MSD A549 degradation 24 h: Average external-Abs DC50. The method, boiled down: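 SMARCA2 protein remaining after 24 h exposure of A549 cells (top concentration 1000 nM, 3-fold dilutions) was measured by MSD electrochemiluminescence immunoassay of cell lysates. Results are given as binned DC50 and maximal degradation (Dmax) codes.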

Each structure is given as a SMILES string.

T1 sequence (P51531 whole entry): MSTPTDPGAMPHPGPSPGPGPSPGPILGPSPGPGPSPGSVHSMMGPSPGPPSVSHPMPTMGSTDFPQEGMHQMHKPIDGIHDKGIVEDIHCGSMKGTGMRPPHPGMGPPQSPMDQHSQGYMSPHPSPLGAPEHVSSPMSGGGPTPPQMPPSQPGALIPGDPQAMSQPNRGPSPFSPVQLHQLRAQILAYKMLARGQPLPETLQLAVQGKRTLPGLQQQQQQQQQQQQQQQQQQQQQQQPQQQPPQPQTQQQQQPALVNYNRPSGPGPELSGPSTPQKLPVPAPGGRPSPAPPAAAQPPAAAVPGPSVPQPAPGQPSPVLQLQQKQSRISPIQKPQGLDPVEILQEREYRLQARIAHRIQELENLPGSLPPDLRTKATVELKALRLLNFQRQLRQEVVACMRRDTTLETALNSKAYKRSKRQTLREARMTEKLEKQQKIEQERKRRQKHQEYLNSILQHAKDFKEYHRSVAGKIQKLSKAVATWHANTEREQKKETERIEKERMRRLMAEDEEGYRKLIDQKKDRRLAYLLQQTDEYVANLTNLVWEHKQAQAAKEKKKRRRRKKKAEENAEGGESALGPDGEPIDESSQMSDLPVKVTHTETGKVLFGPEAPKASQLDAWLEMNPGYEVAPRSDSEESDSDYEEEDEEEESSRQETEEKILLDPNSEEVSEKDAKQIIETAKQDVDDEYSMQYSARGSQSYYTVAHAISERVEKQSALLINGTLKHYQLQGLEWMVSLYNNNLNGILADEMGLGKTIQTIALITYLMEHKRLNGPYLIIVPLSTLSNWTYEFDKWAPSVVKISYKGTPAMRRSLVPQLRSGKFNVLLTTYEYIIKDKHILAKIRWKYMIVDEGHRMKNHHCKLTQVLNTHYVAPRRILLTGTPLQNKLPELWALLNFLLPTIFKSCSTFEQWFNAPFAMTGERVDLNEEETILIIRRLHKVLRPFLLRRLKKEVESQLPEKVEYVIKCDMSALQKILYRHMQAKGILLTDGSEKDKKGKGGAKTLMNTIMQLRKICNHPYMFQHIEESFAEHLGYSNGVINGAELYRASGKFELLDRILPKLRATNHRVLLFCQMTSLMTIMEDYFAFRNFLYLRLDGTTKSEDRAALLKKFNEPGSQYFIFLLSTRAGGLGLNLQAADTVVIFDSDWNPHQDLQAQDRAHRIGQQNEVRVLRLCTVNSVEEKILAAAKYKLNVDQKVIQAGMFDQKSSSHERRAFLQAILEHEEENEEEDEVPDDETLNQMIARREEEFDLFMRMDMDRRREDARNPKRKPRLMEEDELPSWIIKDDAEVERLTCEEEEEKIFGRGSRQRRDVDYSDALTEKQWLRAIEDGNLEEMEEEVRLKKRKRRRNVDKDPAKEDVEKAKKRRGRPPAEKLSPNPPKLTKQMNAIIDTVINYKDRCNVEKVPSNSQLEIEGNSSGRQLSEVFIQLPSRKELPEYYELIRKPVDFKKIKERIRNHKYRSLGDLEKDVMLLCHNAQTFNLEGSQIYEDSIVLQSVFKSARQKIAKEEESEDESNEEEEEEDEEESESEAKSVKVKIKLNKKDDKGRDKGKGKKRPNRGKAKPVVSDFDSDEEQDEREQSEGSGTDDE
T2 sequence (P51532 whole entry): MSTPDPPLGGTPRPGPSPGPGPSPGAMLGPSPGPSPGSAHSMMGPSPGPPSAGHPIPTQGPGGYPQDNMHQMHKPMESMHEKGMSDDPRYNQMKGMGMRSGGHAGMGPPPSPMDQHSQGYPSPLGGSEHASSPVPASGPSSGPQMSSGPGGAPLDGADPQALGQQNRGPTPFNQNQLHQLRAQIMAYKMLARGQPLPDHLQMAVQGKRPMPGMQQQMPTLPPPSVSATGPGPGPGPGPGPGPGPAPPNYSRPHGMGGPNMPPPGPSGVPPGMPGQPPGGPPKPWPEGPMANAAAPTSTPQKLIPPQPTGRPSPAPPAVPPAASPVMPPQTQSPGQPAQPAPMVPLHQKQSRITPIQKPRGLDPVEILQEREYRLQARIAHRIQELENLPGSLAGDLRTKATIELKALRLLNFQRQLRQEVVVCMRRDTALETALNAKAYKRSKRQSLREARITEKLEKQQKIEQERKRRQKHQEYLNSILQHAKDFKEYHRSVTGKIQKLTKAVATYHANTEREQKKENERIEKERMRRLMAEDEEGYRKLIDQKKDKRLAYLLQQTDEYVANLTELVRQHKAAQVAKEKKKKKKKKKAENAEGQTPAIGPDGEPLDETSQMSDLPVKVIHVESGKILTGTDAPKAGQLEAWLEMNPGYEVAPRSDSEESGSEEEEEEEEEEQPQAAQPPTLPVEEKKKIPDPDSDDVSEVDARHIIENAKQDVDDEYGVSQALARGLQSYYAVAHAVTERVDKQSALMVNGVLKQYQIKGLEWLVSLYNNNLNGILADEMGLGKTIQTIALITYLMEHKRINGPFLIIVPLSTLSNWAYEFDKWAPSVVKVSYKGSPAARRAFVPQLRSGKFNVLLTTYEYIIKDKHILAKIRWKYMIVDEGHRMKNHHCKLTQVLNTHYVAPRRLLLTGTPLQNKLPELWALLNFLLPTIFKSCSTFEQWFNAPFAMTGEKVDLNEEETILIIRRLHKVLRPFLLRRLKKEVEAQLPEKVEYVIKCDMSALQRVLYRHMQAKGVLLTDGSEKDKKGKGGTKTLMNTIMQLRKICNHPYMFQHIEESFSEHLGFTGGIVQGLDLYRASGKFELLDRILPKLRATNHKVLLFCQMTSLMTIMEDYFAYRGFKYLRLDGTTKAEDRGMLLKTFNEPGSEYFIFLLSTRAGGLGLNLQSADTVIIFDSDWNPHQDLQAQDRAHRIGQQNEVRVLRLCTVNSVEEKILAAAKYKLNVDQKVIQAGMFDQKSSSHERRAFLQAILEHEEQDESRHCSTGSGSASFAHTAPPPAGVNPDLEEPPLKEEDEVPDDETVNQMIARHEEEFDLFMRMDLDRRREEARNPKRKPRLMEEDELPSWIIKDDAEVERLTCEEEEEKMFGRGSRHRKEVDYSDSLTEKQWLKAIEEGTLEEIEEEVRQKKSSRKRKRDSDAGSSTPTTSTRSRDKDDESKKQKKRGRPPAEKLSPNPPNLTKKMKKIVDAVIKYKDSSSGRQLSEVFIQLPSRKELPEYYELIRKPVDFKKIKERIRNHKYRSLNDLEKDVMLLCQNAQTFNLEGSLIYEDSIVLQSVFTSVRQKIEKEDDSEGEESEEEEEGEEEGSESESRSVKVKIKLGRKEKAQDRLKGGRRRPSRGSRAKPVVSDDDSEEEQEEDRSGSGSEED

`Cn1nccc1-c1ccc(CNC(=O)[C@@H]2C[C@@H](O)CN2C(=O)[C@@H](NC(=O)[C@H]2CC[C@@H](c3ccc(-c4cnc(N5CCN6c7cc(-c8ccccc8O)nnc7NC[C@H]6C5)nc4)cc3)CC2)C(C)(C)C)cc1` (single isomer, unassigned) [I-88]: the maximal degradation (Dmax) at SMARCA2 [1], at SMARCA4 and on SMARCA2 [2] was above 90% each time. Moreover, the DC50 at SMARCA2 [1] was below 0.001 µM; on SMARCA4 it was 0.001 to 0.01 µM; at SMARCA2 [2], below 0.01 µM. Besides, the “Selectivity in MV411” value on SMARCA2 [1] is “C (C (10-100 fold))”.
`C#Cc1ccc(CNC(=O)[C@@H]2C[C@@H](O)CN2C(=O)[C@@H](NC(=O)N2CCC(CN3CCC(N4CCc5[nH]c6nnc(-c7ccccc7O)cc6c5[C@H]4C)CC3)CC2)C(C)(C)C)cc1` [I-198]: the Dmax is 50 to 70% on SMARCA2 [1], below 50% at SMARCA4 and 70 to 90% on SMARCA2 [2]. Moreover, the DC50 is 0.01 to 0.1 µM at SMARCA2 [1], above 0.1 µM on SMARCA4 and above 0.1 µM at SMARCA2 [2]. Further, the “Selectivity in MV411” value at SMARCA2 [1] was “C (C (10-100 fold))”.
On to `C#Cc1ccc(CNC(=O)[C@@H]2C[C@@H](O)CN2C(=O)[C@@H](NC(=O)[C@H]2CCC3(CC2)C[C@H](N2CCC(c4cnc(N5CCN6c7cc(-c8ccccc8O)nnc7NC[C@H]6C5)nc4)CC2)C3)C(C)(C)C)c(Cl)c1` (single isomer, unassigned) [I-99], for which, at SMARCA2 [1], the “SMARCA2 MSD MV411 degradation 24 h: average Dmax %” value is reported as “B (B (>70-90% degradation))”, the half-maximal degradation concentration (DC50) lay in the range of 0.001 to 0.01 µM and the “Selectivity in MV411” value is recorded as “B (B (>100-500 fold))”. Further, on SMARCA4, the “SMARCA4 MSD MV411 degradation 24 h: average Dmax %” value is listed as “C (C (50-70% degradation))” and the DC50 is above 0.1 µM. At SMARCA2 [2], the “SMARCA2 MSD A549 degradation 24 h: Average Dmax %” value is given as “A (A (>90% degradation))” and the DC50 is below 0.01 µM.
For the compound `C#Cc1ccc(CNC(=O)[C@@H]2C[C@@H](O)CN2C(=O)[C@@H](NC(=O)N2CCN(C[C@H]3CC[C@H](N4CCc5[nH]c6nnc(-c7ccccc7O)cc6c5[C@H]4C)CC3)CC2)C(C)(C)C)cc1` [I-200], on SMARCA2 [1], the greatest degradation seen (Dmax) was in the range of 50 to 70%, the DC50 lay in the range of 0.01 to 0.1 µM and the “Selectivity in MV411” value is “C (C (10-100 fold))”. Also, at SMARCA4, the Dmax is below 50% and the DC50 was above 0.1 µM. Further, at SMARCA2 [2], the Dmax was above 90% and the DC50 is above 0.1 µM.
As for `C#Cc1ccc(CNC(=O)[C@@H]2C[C@@H](O)CN2C(=O)[C@H](NC(=O)[C@H]2CCC3(CC2)C[C@H](N2CCN(c4cnc(N5CCN6c7cc(-c8ccccc8O)nnc7NC[C@H]6C5)nc4)CC2)C3)C(C)(C)CCO)c(Cl)c1` (stereo partly drawn) [I-307], on SMARCA2 [1], the “Selectivity in MV411” value is “D (D (<10 fold))”. In addition, on SMARCA4, the “SMARCA4 MSD MV411 degradation 24 h: average Dmax %” value is “D (D (<50% degradation))” and the 50% degradation concentration (DC50) was above 0.1 µM. Also, the DC50 at SMARCA2 [2] is above 0.1 µM.
With `Cc1ncsc1-c1ccc(CNC(=O)[C@@H]2C[C@@H](O)CN2C(=O)C(c2cc(OCCCN3CCC(c4cnc(N5CCN6c7cc(-c8ccccc8O)nnc7NCC6C5)nc4)CC3)no2)C(C)C)cc1` (stereo in doubt) [I-52, (2S,4R)-4-hydroxy-1-(2-(3-(3-(4-(2-((S)-2-(2-hydroxyphenyl)-6a,7,9,10-tetrahydro-5H-pyrazino[1′,2′:4,5]pyrazino[2,3-c]pyridazin-8(6H)-yl)pyrimidin-5-yl)piperidin-1-yl)propoxy)isoxazol-5-yl)-3-methylbutanoyl)-N-(4-(4-methylthiazol-5-yl)benzyl)pyrrolidine-2-carboxamide], on SMARCA2 [1], the maximal degradation (Dmax) is above 90%, the 50% degradation concentration (DC50) is below 0.001 µM and the “Selectivity in MV411” value was “D (D (<10 fold))”. Besides, at SMARCA4, the maximal degradation (Dmax) is above 90% and the DC50 lay in the range of 0.001 to 0.01 µM. Also, at SMARCA2 [2], the maximal degradation (Dmax) is above 90% and the DC50 lay in the range of 0.01 to 0.05 µM.
Take `C#Cc1ccc(CNC(=O)[C@@H]2C[C@@H](O)CN2C(=O)[C@@H](NC(=O)[C@H]2CCC3(CC2)C[C@H](N2CCC(N4CCC(N5CCN6c7cc(-c8ccccc8O)nnc7NC[C@H]6C5)CC4)CC2)C3)C(C)(C)C)cc1` (single isomer, unassigned) [I-175]: on SMARCA2 [1], the “SMARCA2 MSD MV411 degradation 24 h: average Dmax %” value was “B (B (>70-90% degradation))”, the 50% degradation concentration (DC50) was 0.001 to 0.01 µM and the “Selectivity in MV411” value was “B (B (>100-500 fold))”. At SMARCA4, the “SMARCA4 MSD MV411 degradation 24 h: average Dmax %” value was “D (D (<50% degradation))” and the DC50 is above 0.1 µM. For the same compound, on SMARCA2 [2], the “SMARCA2 MSD A549 degradation 24 h: Average Dmax %” value was “A (A (>90% degradation))” and the 50% degradation concentration (DC50) lay within 0.05 to 0.1 µM.
Consider `C#Cc1ccc([C@@H](C)NC(=O)[C@@H]2C[C@@H](O)CN2C(=O)C(c2cc(N3CCC(CN4CCC(N5CCC(N6CCN7c8cc(-c9ccccc9O)nnc8NC[C@H]7C6)CC5)CC4)CC3)no2)C(C)C)c(Cl)c1` (stereo partly drawn) [I-327], for which, at SMARCA2 [1], the greatest degradation seen (Dmax) is 70 to 90%, the 50% degradation concentration (DC50) was 0.01 to 0.1 µM and the “Selectivity in MV411” value is listed as “C (C (10-100 fold))”. On SMARCA4, the Dmax fell in the range of 70 to 90% and the half-maximal degradation concentration (DC50) is above 0.1 µM. Moreover, on SMARCA2 [2], the maximal degradation (Dmax) was above 90% and the 50% degradation concentration (DC50) lay in the range of 0.05 to 0.1 µM.
Take `C#Cc1ccc(CNC(=O)[C@@H]2C[C@@H](O)CN2C(=O)[C@@H](NC(=O)N2CC3(CN(CC4CCN(c5cnc(N6CCc7[nH]c8nnc(-c9ccccc9O)cc8c7[C@H]6C)nc5)CC4)C3)C2)C(C)(C)C)cc1` [I-164]: at SMARCA2 [1], the Dmax is 70 to 90%, the DC50 lay in the range of 0.01 to 0.1 µM and the “Selectivity in MV411” value was “B (B (>100-500 fold))”. In addition, on SMARCA4, the maximal degradation (Dmax) was below 50% and the 50% degradation concentration (DC50) was above 0.1 µM. Also, at SMARCA2 [2], the maximal degradation (Dmax) is above 90% and the DC50 is above 0.1 µM.
For the compound `C#Cc1ccc(CNC(=O)[C@@H]2C[C@@H](O)CN2C(=O)[C@@H](NC(=O)[C@H]2CCC3(CC2)C[C@H](N2CCC(c4cnc(N5CCN6c7cc(-c8ccccc8O)nnc7NC[C@H]6C5)nc4)CC2)C3)C(C)(C)C)c(OCCCOC)c1` (single isomer, unassigned) [I-130], the Dmax at SMARCA2 [1], at SMARCA4 and at SMARCA2 [2] was above 90% each time. Moreover, the DC50 at SMARCA2 [1] was 0.001 to 0.01 µM; at SMARCA4 it was 0.01 to 0.1 µM; at SMARCA2 [2], below 0.01 µM. Moreover, the “Selectivity in MV411” value on SMARCA2 [1] is listed as “D (D (<10 fold))”.
As to `C#Cc1ccc(CNC(=O)[C@@H]2C[C@@H](O)CN2C(=O)[C@@H](NC(=O)N2CC3(CC(CN4CCC(N5CCC(N6CCc7[nH]c8nnc(-c9ccccc9O)cc8c7[C@H]6C)CC5)CC4)C3)C2)C(C)(C)C)cc1` [I-190], at SMARCA2 [1], the Dmax lay within 50 to 70%, the DC50 lay within 0.01 to 0.1 µM and the “Selectivity in MV411” value is given as “C (C (10-100 fold))”. Besides, at SMARCA4, the Dmax was 50 to 70% and the DC50 is above 0.1 µM. At SMARCA2 [2], the Dmax is above 90% and the DC50 is above 0.1 µM.
Regarding `C#Cc1ccc(CNC(=O)[C@@H]2C[C@@H](O)CN2C(=O)[C@@H](NC(=O)[C@H]2CCC3(CC2)C[C@H](N2CCC(c4cnc(N5CCN6c7cc(-c8ccccc8O)nnc7NC[C@H]6C5)nc4)CC2)C3)C(C)(C)C)c(OCCCN(C)C)c1` (single isomer, unassigned) [I-158], on SMARCA2 [1], the “SMARCA2 MSD MV411 degradation 24 h: average Dmax %” value is recorded as “B (B (>70-90% degradation))”, the half-maximal degradation concentration (DC50) was 0.001 to 0.01 µM and the “Selectivity in MV411” value is on record as “C (C (10-100 fold))”. Besides, on SMARCA4, the “SMARCA4 MSD MV411 degradation 24 h: average Dmax %” value is given as “B (B (>70-90% degradation))” and the DC50 lay in the range of 0.01 to 0.1 µM. In addition, at SMARCA2 [2], the “SMARCA2 MSD A549 degradation 24 h: Average Dmax %” value is reported as “A (A (>90% degradation))” and the 50% degradation concentration (DC50) lay in the range of 0.05 to 0.1 µM.
